Experimental data taken from PubChem BioAssay AID330 (DTP/NCI, 2004).
Where “and” joins values, the source holds several entries; their conditions need not be identical. Identical values can stand only once. Toxic doses and inconclusive results are not listed. Rule for the calls: active = survival T/C of 150% or more; inactive = T/C below 125% in these data.

Tested on: P388 leukemia ip, CD2F1 mice, survival T/C
Assay: NCI In Vivo Anticancer Drug Screen. Data for tumor model P388 Leukemia (intraperitoneal) in CD2F1 (CDF1) mice
Settings: endpoint: median survival time, higher = longer survival
Outline: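 Mice carrying the transplanted tumor received test compound or vehicle. Survival was recorded in each group, and the value is the treated-group measurement divided by that of the vehicle-treated control group.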

[1] = dose: 60.0 mg/kg/injection, schedule: Q01DX005 (ip), vehicle: saline with Tween-80
[2] = dose: 120.0 mg/kg/injection, schedule: Q01DX005 (ip), vehicle: saline with Tween-80
[3] = dose: 240.0 mg/kg/injection, schedule: Q01DX005 (ip), vehicle: saline with Tween-80
[4] = dose: 50.0 mg/kg/injection, schedule: Q01DX005 (ip), vehicle: Klucel (hydroxypropylcellulose) (HPC)
[5] = dose: 100.0 mg/kg/injection, schedule: Q01DX005 (ip), vehicle: Klucel (hydroxypropylcellulose) (HPC)
[6] = dose: 200.0 mg/kg/injection, schedule: Q01DX005 (ip), vehicle: Klucel (hydroxypropylcellulose) (HPC)
[7] = dose: 50.0 mg/kg/injection, schedule: Q01DX005 (ip), vehicle: saline with Tween-80
[8] = dose: 100.0 mg/kg/injection, schedule: Q01DX005 (ip), vehicle: saline with Tween-80
[9] = dose: 200.0 mg/kg/injection, schedule: Q01DX005 (ip), vehicle: saline with Tween-80
[10] = dose: 6.25 mg/kg/injection, schedule: Q01DX009 (ip), vehicle: distilled water + Tween-80
[11] = dose: 12.5 mg/kg/injection, schedule: Q01DX009 (ip), vehicle: distilled water + Tween-80
[12] = dose: 25.0 mg/kg/injection, schedule: Q01DX009 (ip), vehicle: distilled water + Tween-80

Measured: T/C

CCNc1ccc(C(=O)c2cccc(N)c2)cc1N
inactive: [1] 96 % of control | [2] 96 % of control | [3] 89 % of control

O=C1c2ccccc2C(=O)c2cnccc21
inactive: [4] 109 % of control | [5] 106 % of control | [6] 106 % of control

N#CC(C#N)=CN
inactive: dose: 50.0 mg/kg/injection, schedule: Q01DX009 (ip), vehicle: saline with Tween-80 94 % of control | dose: 100.0 mg/kg/injection, schedule: Q01DX009 (ip), vehicle: saline with Tween-80 103 % of control | dose: 200.0 mg/kg/injection, schedule: Q01DX009 (ip), vehicle: saline with Tween-80 103 % of control

COc1ccc([N+](=O)[O-])c(OC(C)=O)c1OC
inactive: dose: 12.5 mg/kg/injection, schedule: Q01DX009 (ip), vehicle: other 104 % of control | dose: 50.0 mg/kg/injection, schedule: Q01DX009 (ip), vehicle: other 93 % of control | dose: 100.0 mg/kg/injection, schedule: Q01DX009 (ip), vehicle: other 89 % of control | dose: 200.0 mg/kg/injection, schedule: Q01DX009 (ip), vehicle: other 89 % of control

COc1ccc(CC2(C(=O)O)NCCS2)cc1OC (centres undefined)
inactive: dose: 100.0 mg/kg/injection, schedule: Q04DX003 (ip), vehicle: Klucel (hydroxypropylcellulose) (HPC) 101 % of control | dose: 200.0 mg/kg/injection, schedule: Q04DX003 (ip), vehicle: Klucel (hydroxypropylcellulose) (HPC) 98 % of control

Cn1c(C(Cl)Cl)nc2ccccc2c1=O
inactive: dose: 12.5 mg/kg/injection, schedule: Q04DX003 (ip), vehicle: Klucel (hydroxypropylcellulose) (HPC) 95 % of control | dose: 25.0 mg/kg/injection, schedule: Q04DX003 (ip), vehicle: Klucel (hydroxypropylcellulose) (HPC) 104 % of control | dose: 50.0 mg/kg/injection, schedule: Q04DX003 (ip), vehicle: Klucel (hydroxypropylcellulose) (HPC) 104 % of control

CC1(C(N)=O)CCSc2ccccc2C1=O (centres undefined)
inactive: [7] 95 % of control | [8] 92 % of control | [9] 94 % of control

Cc1cc(C)cc(-n2cccc2C(=O)O)c1
inactive: [1] 93 % of control | [2] 99 % of control | [3] 100 % of control

C[C@@H]1CC[C@@]2(OC1)O[C@H]1C[C@H]3[C@@H]4CC(=O)C5=CC(=O)CC[C@]5(C)[C@H]4CC[C@]3(C)[C@H]1[C@@H]2C
inactive: dose: 2.25 mg/kg/injection, schedule: Q01DX005 (ip), vehicle: Klucel (hydroxypropylcellulose) (HPC) 101 % of control | dose: 4.5 mg/kg/injection, schedule: Q01DX005 (ip), vehicle: Klucel (hydroxypropylcellulose) (HPC) 100 % of control | dose: 9.0 mg/kg/injection, schedule: Q01DX005 (ip), vehicle: Klucel (hydroxypropylcellulose) (HPC) 97 % of control | dose: 18.0 mg/kg/injection, schedule: Q01DX005 (ip), vehicle: Klucel (hydroxypropylcellulose) (HPC) 89 % of control | dose: 36.0 mg/kg/injection, schedule: Q01DX005 (ip), vehicle: Klucel (hydroxypropylcellulose) (HPC) 88 % of control

CCC/C=C/C=C\C(=O)O[C@@H]1[C@@H](C)[C@]2(O)[C@@H]3C=C(C)C(=O)[C@H]3CC(COC(C)=O)=C[C@H]2[C@@H]2C(C)(C)[C@]12OC(C)=O
inactive: dose: 0.38 mg/kg/injection, schedule: Q01DX005 (ip), vehicle: saline + alcohol 123 % of control and 92 % of control | dose: 0.38 mg/kg/injection, schedule: Q01DX005 (ip), vehicle: saline with Tween-80 100 % of control | dose: 0.75 mg/kg/injection, schedule: Q01DX005 (ip), vehicle: saline with Tween-80 105 % of control | dose: 1.5 mg/kg/injection, schedule: Q01DX005 (ip), vehicle: saline with Tween-80 103 % of control | dose: 3.0 mg/kg/injection, schedule: Q01DX005 (ip), vehicle: saline with Tween-80 117 % of control

C=C(CN(C)C)C(=O)c1ccc(Oc2ccccc2)cc1
inactive: dose: 0.93 mg/kg/injection, schedule: Q01DX005 (ip), vehicle: saline 104 % of control | dose: 1.87 mg/kg/injection, schedule: Q01DX005 (ip), vehicle: saline 100 % of control | dose: 3.75 mg/kg/injection, schedule: Q01DX005 (ip), vehicle: saline 100 % of control

COc1ccc(C2C(C(=O)OCc3ccccc3)=C(C)NC(C)=C2C(=O)OCc2ccccc2)cc1
inactive: dose: 0.78 mg/kg/injection, schedule: Q01DX009 (ip), vehicle: distilled water + Tween-80 98 % of control | dose: 1.56 mg/kg/injection, schedule: Q01DX009 (ip), vehicle: distilled water + Tween-80 93 % of control | dose: 3.13 mg/kg/injection, schedule: Q01DX009 (ip), vehicle: distilled water + Tween-80 88 % of control and 93 % of control | [10] 92 % of control | [11] 87 % of control and 92 % of control | [12] 95 % of control

S=C(Nc1ccccc1)P(c1ccccc1)c1ccccc1.[Ir]
inactive: [4] 90 % of control | [5] 99 % of control | [6] 97 % of control

CC1(C)CCCC2(C)C3=C(CCC12)C(=O)OC3 (centres undefined)
inactive: dose: 25.0 mg/kg/injection, schedule: Q01DX005 (ip), vehicle: Klucel (hydroxypropylcellulose) (HPC) 101 % of control | [4] 102 % of control | [5] 100 % of control | [6] 100 % of control

COC1=CC(=O)C(Cc2ccc(OC)cc2)=CC1=O
inactive: dose: 2.5 mg/kg/injection, schedule: Q01DX009 (ip), vehicle: saline with Tween-80 100 % of control | dose: 5.0 mg/kg/injection, schedule: Q01DX009 (ip), vehicle: saline with Tween-80 100 % of control | dose: 10.0 mg/kg/injection, schedule: Q01DX009 (ip), vehicle: saline with Tween-80 100 % of control

C(=C\c1cc2cc(C3=NCCN3)ccc2[nH]1)/c1ccc(C2=NCCN2)cc1
inactive: dose: 6.25 mg/kg/injection, schedule: Q04DX003 (ip), vehicle: saline 107 % of control and 108 % of control | dose: 12.5 mg/kg/injection, schedule: Q04DX003 (ip), vehicle: saline 117 % of control and 119 % of control

CC(C)(C)c1cc(C(O)(C(F)(F)F)C(F)(F)F)c(Cl)c(C(O)(C(F)(F)F)C(F)(F)F)c1
inactive: [4] 94 % of control | [5] 90 % of control | [6] 92 % of control

CC1=CC(OC2CCCCC2)OC1=O (centres undefined)
inactive: dose: 47.5 mg/kg/injection, schedule: Q01DX005 (ip), vehicle: Klucel (hydroxypropylcellulose) (HPC) 104 % of control | dose: 95.0 mg/kg/injection, schedule: Q01DX005 (ip), vehicle: Klucel (hydroxypropylcellulose) (HPC) 101 % of control | dose: 190.0 mg/kg/injection, schedule: Q01DX005 (ip), vehicle: Klucel (hydroxypropylcellulose) (HPC) 104 % of control

C/C(CC(=O)c1ccccc1)=C1\C(=O)NN(c2ccccc2)C1=O
inactive: [1] 101 % of control | [2] 101 % of control | [3] 93 % of control

COc1cc2c(c(OC)c1OC)-c1cc3c(cc1C(OC1OC(COC(C)=O)C(OC(C)=O)C(OC(C)=O)C1OC(C)=O)C1COC(=O)C1C2)OCO3 (centres undefined)
inactive: dose: 18.75 mg/kg/injection, schedule: Q01DX005 (ip), vehicle: Klucel (hydroxypropylcellulose) (HPC) 93 % of control | dose: 37.5 mg/kg/injection, schedule: Q01DX005 (ip), vehicle: Klucel (hydroxypropylcellulose) (HPC) 93 % of control | dose: 75.0 mg/kg/injection, schedule: Q01DX005 (ip), vehicle: Klucel (hydroxypropylcellulose) (HPC) 93 % of control | dose: 150.0 mg/kg/injection, schedule: Q01DX005 (ip), vehicle: Klucel (hydroxypropylcellulose) (HPC) 88 % of control

COC(=O)C1=COC(C)C2CN3CCc4c([nH]c5ccccc45)C3CC12 (centres undefined)
inactive: [7] 106 % of control | [1] 100 % of control | [8] 106 % of control | [2] 93 % of control | [9] 100 % of control | [3] 90 % of control

CCOc1cc2c3c(c(C)cc2cn1)CCC3=O
inactive: [10] 96 % of control | [11] 100 % of control | [12] 114 % of control | dose: 50.0 mg/kg/injection, schedule: Q01DX009 (ip), vehicle: distilled water + Tween-80 98 % of control and 96 % of control | dose: 100.0 mg/kg/injection, schedule: Q01DX009 (ip), vehicle: distilled water + Tween-80 115 % of control and 87 % of control | dose: 200.0 mg/kg/injection, schedule: Q01DX009 (ip), vehicle: distilled water + Tween-80 118 % of control

COc1cc(C2Oc3c(OC)cc(/C=C/C(=O)NCCc4ccc(O)cc4)cc3C2C(=O)NCCc2ccc(O)cc2)ccc1O (centres undefined)
inactive: dose: 1.88 mg/kg/injection, schedule: Q01DX005 (ip), vehicle: Klucel (hydroxypropylcellulose) (HPC) 96 % of control | dose: 3.75 mg/kg/injection, schedule: Q01DX005 (ip), vehicle: Klucel (hydroxypropylcellulose) (HPC) 94 % of control | dose: 7.5 mg/kg/injection, schedule: Q01DX005 (ip), vehicle: Klucel (hydroxypropylcellulose) (HPC) 99 % of control | dose: 15.0 mg/kg/injection, schedule: Q01DX005 (ip), vehicle: Klucel (hydroxypropylcellulose) (HPC) 101 % of control
